In ChEMBL document CHEMBL1201862, “PubChem BioAssay data set” (2004):
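Exposure lasted 48 hours, with cells grown in 96-well plates and compounds tested at five concentrations. GI50 = concentration required for 50% inhibition of growth.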 The source made the active and inactive calls. Cut-off read from the data, not from the text of the source: active = GI50 up to about 1.1 µM and inactive = higher.

Assays:
Assay in all cases: growth of human tumour cells (NCI), 48 h
A498 = system: A498
ACHN = system: ACHN
CAKI-1 = system: CAKI-1
CCRF-CEM = system: CCRF-CEM
DMS-114 = system: DMS-114
HCC 2998 = system: HCC 2998
M14 = system: M14
MOLT-4 = system: MOLT-4
NCI-H23 = system: NCI-H23
OVCAR-3 = system: OVCAR-3
SN12C = system: SN12C
SNB-19 = system: SNB-19
SNB-75 = system: SNB-75
SW-620 = system: SW-620
UACC-257 = system: UACC-257
UACC-62 = system: UACC-62

Measured: GI50

Cc1oc2c(C)c3oc(=O)cc(C)c3cc2c1CN1C(=O)C2OCCOCCOCCOCCOCCO[C@H]2C1=O (some centres undefined)
inactive: A498 > 100 µM | ACHN > 100 µM | CAKI-1 > 100 µM | CCRF-CEM > 100 µM | DMS-114 > 100 µM | HCC 2998 > 100 µM | M14 > 100 µM | MOLT-4 > 100 µM | NCI-H23 > 100 µM | OVCAR-3 > 100 µM | SN12C > 100 µM | SNB-19 > 100 µM | SNB-75 > 100 µM | SW-620 > 100 µM | UACC-257 > 100 µM | UACC-62 > 100 µM

Cn1c(=O)c2nc3c4ccccc4c(=O)n(C)c3nc2n(C)c1=O
inactive: ACHN > 100 µM | DMS-114 > 100 µM | HCC 2998 > 100 µM | MOLT-4 > 100 µM | NCI-H23 > 100 µM | OVCAR-3 > 100 µM | SN12C > 100 µM | SNB-19 > 100 µM | SNB-75 > 100 µM | SW-620 > 100 µM | UACC-257 > 100 µM | UACC-62 > 100 µM

NNC(=O)N/N=C1/C(=O)N(c2ccc(Cl)c(Cl)c2)C(=O)C(=O)C1c1nc2ccccc2o1 (centres undefined)
inactive: A498 > 100 µM | ACHN > 100 µM | CAKI-1 > 100 µM | CCRF-CEM > 100 µM | DMS-114 > 100 µM | HCC 2998 > 100 µM | M14 > 100 µM | MOLT-4 78.9 µM | NCI-H23 > 100 µM | OVCAR-3 > 100 µM | SN12C > 100 µM | SNB-19 29.5 µM | SNB-75 > 100 µM | SW-620 > 100 µM | UACC-257 > 100 µM | UACC-62 67.1 µM

Cn1cc(NC(=O)c2cc(NC(=O)CCCCCCCC(=O)Nc3cc(C(=O)Nc4cc(C(=O)NCCC(=N)N)n(C)c4)n(C)c3)cn2C)cc1C(=O)NCCC(=N)N
inactive: A498 13.7 µM | ACHN 58.1 µM | CAKI-1 18.8 µM | CCRF-CEM 25.3 µM | DMS-114 4.03 µM | HCC 2998 16.1 µM | M14 27.9 µM | MOLT-4 21.9 µM | NCI-H23 17.3 µM | OVCAR-3 32.1 µM | SN12C 12.6 µM | SNB-19 55.1 µM | SNB-75 35.2 µM | SW-620 32.7 µM | UACC-257 5.7 µM | UACC-62 15.7 µM

O=S(=O)(c1ccccc1)c1nccs1
inactive: A498 > 100 µM | ACHN > 100 µM | CAKI-1 > 100 µM | DMS-114 > 100 µM | HCC 2998 > 100 µM | M14 > 100 µM | MOLT-4 > 100 µM | NCI-H23 > 100 µM | OVCAR-3 > 100 µM | SN12C > 100 µM | SNB-19 > 100 µM | SNB-75 > 100 µM | SW-620 > 100 µM | UACC-257 > 100 µM | UACC-62 > 100 µM

CCCCCCCCCCCCCCNCC(OC)OC
inactive: A498 19.8 µM | ACHN 16.2 µM | CCRF-CEM 9.18 µM | DMS-114 14 µM | HCC 2998 18.6 µM | M14 14.1 µM | NCI-H23 20.2 µM | OVCAR-3 17.3 µM | SN12C 15.1 µM | SNB-19 17.9 µM | SNB-75 13.8 µM | SW-620 16.1 µM | UACC-257 19.4 µM | UACC-62 19.6 µM
